From US10772859B2, “Methods of targeting APE/Ref-1 to inhibit hypoxia signaling genes” (Indiana University Research and Technology Corporation, priority 2015, dated 2020)
Read-outs that look alike come from different tables or passages of the source.

Tests used:
CA9 mRNA [1] = test: qRT-PCR of CA9 mRNA levels under hypoxia; format: cell-based, human; conditions: 24 hours of exposure to APX3330 and 1% oxygen
Experimental: qRT-PCR Reactions: qRT-PCR was used to measure the mRNA expression levels of CA9 as described in Fishel, Jiang et al. (2011) Molecular Cancer Therapeutics 10(9): 1698-1708. Cells were treated with APE1/Ref-1 siRNA or increasing amounts of APX3330 in the presence or absence of hypoxia (1% and 0.2% O2) for 24 hours, then total RNA was extracted from cells using the QiagenRNeasy Mini kit (Valencia, Calif.). First-strand cDNA synthesis and quantitative PCR were performed as described in Fishel, Vasko et al. (2007) Mutat Res 614(1-2): 24-36; Jiang, Guo et al. (2009) DNA Repair (Amst) 8(11): 1273-1282; Fishel, Jiang et al. (2011) Molecular Cancer Therapeutics 10(9): 1698-1708. The relative quantitative mRNA level was determined using the comparative Ct method using 18S rRNA, RPLPO, and B2M as reference genes (Livak and Schmittgen (2001) Methods 25(4): 402-408; Fishel, Vasko et al. (2007) Mutat Res 614(1-2): 24-36; Jiang, Guo et al. (2009) DNA Repair (Amst) 8(11): 1273-1282). The primers for CA9, 18S, RPLPO, and B2M are commercially available (Applied Biosystems).

CA9 protein = test: Western blot of CA9 protein in 3D tumor spheroid cultures with or without CAFs; format: cell-based, human; conditions: Pa03C 3D tumor cultures, in the presence and absence of CAF cells
Experimental: Western Blot Analysis: Western blots were performed as described in Wang, Luo et al. (2004) Mol Cancer Ther 3(6): 679-686; Fishel, He et al. (2008) DNA Repair (Amst) 7(2): 177-186; Fishel, Colvin et al. (2010) Hematol 38(12): 1178-1188; Jiang, Zhou et al. (2010) Cancer Investigation 28(9): 885-895; Fishel, Jiang et al. (2011) Molecular Cancer Therapeutics 10(9): 1698-1708; Cardoso, Jiang et al. (2012) PLoS ONE 10: e47462; Fishel, Wu et al. (2015) J Biol Chem 290(5): 3057-3068, with antibodies for APE1/Ref-1 (Novus Biologicals; Littleton, Colo.), HIF1α (GeneTex; Irvine, Calif.), STAT1, STATS, (Cell Signaling; Danvers, Mass.), NFκB (abcam; Cambridge, Mass.), CA9 (Santa Cruz; Dallas, Tex.) and Vinculin (Sigma; St. Louis, Mo.).
3D Co-Cultures: Ultra low attachment 96-well plates (Corning Inc., Life Sciences) were used to generate 3-dimensional tumor spheroids in the presence and absence of CAFs (75 μL/well) as described previously (Sempere, Gunn et al. (2011) Cancer Biol Ther 12(3): 198-207; Arpin, Mac et al. (2015) Molecular Cancer Therapeutics). […] On Day 12, spheroids were analyzed using Thermo ArrayScan high-content imaging system (Lovborg, Nygren et al. (2004) Mol Cancer Ther 3(5): 521-526; Lindblom, Berg et al. (2012) Toxicol Pathol 40(1): 18-32). […]

Pa02C cells = test: Alamar Blue cell proliferation in monolayer under hypoxia; format: cell-based, human; conditions: hypoxia (0.2%) for six days, single agent
Experimental: Cell Proliferation: PDAC cell proliferation in monolayer was measured using the Alamar Blue assay as described in Fishel, Wu et al. (2015) J Biol Chem 290(5): 3057-3068. Cells treated with APX3330 and SLC-0111 were exposed to hypoxia for six days followed by addition of Alamar Blue reagent (Invitrogen) and subsequent fluorescence analysis. Fold change refers to the fluorescence reading for cells treated with indicated inhibitors compared to cells growing in normal media.

[2] = tested on: Pa03C and Panc10.05 tumor spheroids with or without CAFs; test: 3D co-culture tumor spheroid model (Example 1); format: cell-based, human; conditions: for tumor cell killing (reduction in area of tumor cells): 3D spheroids, 12 days in culture, with and without CAFs
Experimental: 3D Co-Cultures: Ultra low attachment 96-well plates (Corning Inc., Life Sciences) were used to generate 3-dimensional tumor spheroids in the presence and absence of CAFs (75 μL/well) as described previously (Sempere, Gunn et al. (2011) Cancer Biol Ther 12(3): 198-207; Arpin, Mac et al. (2015) Molecular Cancer Therapeutics). Cells were stably transduced with EGFP (green) or TdTomato (red) as indicated to preserve the genetic characteristics of the low passage patient cells (Jones, Zhang et al. (2008) Science 321(5897): 1801-1806). Cells were re-suspended in colorless DMEM growth media containing 3% Reduced Growth Factor Matrigel (RGF, BD Biosciences) and 5% FBS. Following plating, cells were treated on Days 4 and 8 with media containing 5% serum, 3% RGF Matrigel, and inhibitors as indicated. On Day 12, spheroids were analyzed using Thermo ArrayScan high-content imaging system (Lovborg, Nygren et al. (2004) Mol Cancer Ther 3(5): 521-526; Lindblom, Berg et al. (2012) Toxicol Pathol 40(1): 18-32). Images of 3D structures were captured by ArrayScan using a 2.5× objective for TdTomato and EGFP; then 2D projections were processed to quantify differences in total intensity and total area of both CAFs and tumor.

[3] = tested on: PDAC tumor spheroids (Pa03C and Panc10.05) alone and with CAFs; test: Three-dimensional growth assay, PDAC/CAF co-culture (Example 2); format: cell-based, human; conditions: tumor spheroids alone and in culture with CAFs
Experimental: Ninety-six well plates were coated with 1% Noble Agar (Difco) (50 μL/well). mCherry-labeled PDAC cells and EGFP-labeled CAFs were resuspended in normal growth media containing 3% Matrigel (BD Biosciences) at a cell ratio of 1:4 (tumor:CAF) and plated on top of solidified 1% Noble Agar. Cells were fed on Days 4 and 8 following plating with media containing 5% serum+3% Matrigel+investigational drug.
Utilizing APX3330, JAK 2 inhibitor (Ruxolitinib (INCB018424; Fisher Scientific) (“RUX”)) and lead STATS inhibitors (PG-S3-001, DR-4-89), the effects of Ref-1/STAT3 inhibition in PDAC low passage patient-derived cell lines (Pa03C and Panc10.05) were evaluated. The response using proliferation-based 3D co-culture assays and statistical analyses to assess synergy, additively or antagonism was evaluated using the Chou-Talalay method.
This Example was designed to visualize the same live co-cultures over 12 days with images captured by Thermo ArrayScan at 8 and 12 days of co-culture. Cancer and stromal cells in this model were marked with distinct fluorescent proteins (mCherry for tumor and EGFP for CAFs) so that the cell populations could be differentiated and quantified. […] In this way, drug efficacy of PDAC cells could be evaluated in co-culture with CAFs, which more faithfully mimics the natural in vivo PDAC environment.

CA9 mRNA [4] = conditions: Panc-1 and MIA-PaCa2 cells exposed to hypoxia, previously shown; cited from earlier work
PDAC = test: Single-agent STAT3 inhibitor activity in vivo (FIG. 14)

| SMILES | CA9 mRNA levels (CA9 mRNA [1]; Pa03C cells) | CA9 mRNA levels (CA9 mRNA [1]; pancreatic CAF cells) | CA9 expression (protein) (CA9 protein) | PDAC cell proliferation (Pa02C cells) | tumor cell killing (reduction in area of tumor cells) [2] | killing of tumor spheroids [3] | CA9 mRNA levels (CA9 mRNA [4]) | activity in vivo (PDAC) | cell killing in tumor cells versus CAFs ([2]; 3D co-culture, especially CAF19 with Pa03C) |
| --- | --- | --- | --- | --- | --- | --- | --- | --- | --- |
| CCCCCCCCCC(=CC1=C(C)C(=O)C(OC)=C(OC)C1=O)C(=O)O [APX3330] | attenuated in a dose-dependent manner | attenuated in a dose-dependent manner | decreased CA9 expression in 3D tumor cultures in a dose-dependent manner | dose-dependent decrease | decrease in tumor cell area | effectively killed both tumor spheroids alone and in culture with CAFs | decreases |  |  |
| CC(C)C(C(=O)N(Cc1ccc(C2CCCCC2)cc1)c1ccc(C(=O)O)cc1)N(C)S(=O)(=O)c1c(F)c(F)c(F)c(F)c1F (centres unmarked) [PG-S3-001, reference compound] |  |  |  |  |  | effectively killed both tumor spheroids alone and in culture with CAFs |  | some activity was observed in vivo |  |
| NS(=O)(=O)c1ccc(NC(=O)Nc2ccc(F)cc2)cc1 [SLC-0111] |  |  |  |  | dramatic effects on tumor cell killing observed at lower doses than in a monolayer |  |  |  | more dramatic in the tumor cells than in the CAFs |
